This note sets out measurements from publication PMC6368403, “Identification of a bilirubin receptor that may mediate a component of cholestatic itch” (eLife, 2019).

“And” between values parts separate entries of the source, which are not always exact repeats. Equal values may be shown once. Numbered stars: 1 amine (or outer) side, 2 acyl side, 3 side chain; on linkers, the order of the positions; unused ones are H or OH. Bridge positions count the residues as written; N and C are the ends. Square brackets hold non-standard residues; d marks the D form. Peptide text beside a SMILES is read from it. X1 = CC(=O)NC(C(=O)OC(C(C)C)C(N[*:1])C(=O)[*:2])C(O)C(C)C; PhLac = O=C(O)[CH](O)Cc1ccccc1; NMeT = CN[CH](C(=O)O)[CH](C)O; NMeA = CN[CH](C)C(=O)O; NMeDha = C=C(NC)C(=O)O

For assay [1], the system named is mice. Kind of assay: Scratching bouts after subcutaneous injection into the nape of the neck / back. In kind it is in vivo, mouse. As to conditions: for Scratching bouts binned according to 5 min intervals (time course of itch behavior): one column per mouse, values of a mouse sum to 1 (Fig 1B). The protocol: All applicable behavioral tests were performed and analysed with the experimenter blind to genotype. […] On the day before the experiment, animals were placed in the test chamber for 30 min before being subjected to a series of three mock injections with 5 min break periods in between. On the day of the experiment, animals were first allowed to acclimatize to the test chamber for 10 min before injection. […] A bout of scratching was defined as a continuous scratching movement with either hindpaw directed at the area of the injection site. In the cheek injection model, a wipe was defined as a single forepaw stroking the site of the injection. Use of both forepaws on the face or cheek was considered as grooming behavior. […] For H1R block, 30 mg/kg of cetirizine HCl (pH 7.4) was given intraperitoneally thirty minutes prior to injection of bilirubin. Licking behavior was quantified in seconds and identified as the licking of the toes or footpad of the hind paw site of injection that was neither preceded nor followed by licking of any other portion of the body.

In assay [2] the target is T1, MRGPRA1 (Mus musculus, UniProt Q91WW5).
T1 construct: expressed in transfected cells
T1 sequence (Q91WW5 1-304): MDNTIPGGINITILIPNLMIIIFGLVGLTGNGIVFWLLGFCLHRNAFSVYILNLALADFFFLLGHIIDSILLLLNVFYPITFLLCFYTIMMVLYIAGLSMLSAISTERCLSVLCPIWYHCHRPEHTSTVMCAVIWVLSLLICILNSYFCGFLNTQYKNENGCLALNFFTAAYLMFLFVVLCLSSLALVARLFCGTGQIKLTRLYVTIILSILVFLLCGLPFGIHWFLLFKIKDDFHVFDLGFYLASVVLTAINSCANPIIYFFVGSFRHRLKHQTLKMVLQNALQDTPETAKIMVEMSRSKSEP
Kind of assay: Ca2+ imaging and concentration-Ca2+ response (EC50) in HEK293 cells expressing MRGPRA1. It is filed as cell-based. To be noted: for Ca2+ response (concentration-response curve): MRGPRA1, triplicate wells (Fig 2D); for Effect on bilirubin-induced calcium responses: MRGPRA1 cells pre-incubated with 10 µM inhibitor for 30 min, 50 µM bilirubin. The procedure: (§1) All cultured cells were maintained in DMEM supplemented with 10% FBS and 1% Penicillin/Streptomycin at 37°C, 5% CO2. All data included were generated from cells tested for mycoplasma and found to be negative. Cells were imaged in calcium imaging buffer (CIB; 10 mM HEPES, 1.2 mM NaHCO3, 130 mM NaCl, 3 mM KCl, 2.5 mM CaCl2, 0.6 mM MgCl2, 20 mM glucose, and 20 mM sucrose at pH 7.4 and 290–300 mOsm). To monitor changes in intracellular [Ca^2+] ([Ca^2+]i), cells were loaded with either Fura 2-AM (HEK293 cells) or Fluo 4-AM (DRG neurons and mast cells) for 30 min in the dark at 37°C in CIB just prior to imaging. With Fura 2-AM, emission at 510 nm was monitored from excitation at both 340 nm and 380 nm. With Fluo 4-AM, emission at 520 nm was monitored from excitation at 488 nm. Cells were identified as responding if the intracellular [Ca^2+] rose by either 50% compared to baseline or 50% compared to the [Ca^2+]i change assayed during addition of 50 mM KCl (neurons only). Damaged, detached, high-baseline, and motion-activated cells were excluded from analysis.
(§2) In initial screens, HEK293 cells stably expressing the murine G-protein alpha-subunit Gα15, a unique Gα protein that non-selectively couples a large variety of GPCRs to phospholipase C ^30, were plated on poly-D-lysine-coated coverslips and transiently transfected with constructs encoding the MRGRPR of interest. 12–24 hr later, cells were loaded with the Fura 2-AM. Unless otherwise specified, compounds were perfused into the imaging chamber for approximately thirty seconds after a baseline period was established. Response was then monitored at 5 s intervals for an additional 60 s.
(§3) HEK293 cells stably expressing either MRGPRA1, MRGPRX4, and MRGRPC11 were seeded in poly-D-lysine-coated 96-well plates at 10,000 cells/well. Cells were loaded with Fura 2–AM, washed twice, and maintained in CIB. Haem metabolites were freshly dissolved in DMSO in dim light and then diluted into a buffer comprised of 20 mM Tris and 150 mM NaCl at pH 8.8. Potential changes in pH were evaluated prior to each experiment. EC50 values were determined from dose-responses performed in triplicate, repeated 2–4 times. To determine potential antagonism by QWF against bilirubin, cells were treated with varying doses of QWF for 1 min in CIB prior to application of agonist.
(§4) HEK293 stable cell lines expressing GFP-tagged MRGPRA3, MRGPRC11, MRGPRD, MRGPRX1, and MRGPRX2 were generated in previously described reports ([Liu et al., 2009]; [Liu et al., 2012]; [McNeil et al., 2015]). Briefly, plasmids containing the receptor of interest were transfected into HEK cells using Lipofectamine 3000. After 3 days, cells were then selected using 0.5 mg/mL G418. After 3 weeks, monoclonal colonies were established and each the highest expressing clones were identified. For this study, Mrgpra1 and MRGPRX4 were inserted into pEGFP-N1 and transfected into HEK293 cells. MRGPR-positive cells were selected using 0.5 mg/mL G418 for three weeks, after which GFP-positive cells were sorted by FACS and monoclonally expanded. Two lines expressing similar levels of MRGPRA1 and MRGPRX4, as measured by GFP fluorescence, were selected for study.

Assay [3] has as its target T2, MRGPRX4 (Homo sapiens, UniProt Q96LA9).
T2 construct: expressed in transfected cells
Briefly: Ca2+ imaging and concentration-Ca2+ response (EC50) in HEK293 cells expressing MRGPRX4. It is filed as cell-based. To be noted: for Ca2+ response (concentration-response curve): MRGPRX4, triplicate wells (Fig 2I); for Effect on bilirubin-induced calcium responses: MRGPRX4 cells pre-incubated with 10 µM inhibitor for 30 min, 50 µM bilirubin. The protocol: as §1, §2, §3, §4

T2 sequence (Q96LA9 whole entry): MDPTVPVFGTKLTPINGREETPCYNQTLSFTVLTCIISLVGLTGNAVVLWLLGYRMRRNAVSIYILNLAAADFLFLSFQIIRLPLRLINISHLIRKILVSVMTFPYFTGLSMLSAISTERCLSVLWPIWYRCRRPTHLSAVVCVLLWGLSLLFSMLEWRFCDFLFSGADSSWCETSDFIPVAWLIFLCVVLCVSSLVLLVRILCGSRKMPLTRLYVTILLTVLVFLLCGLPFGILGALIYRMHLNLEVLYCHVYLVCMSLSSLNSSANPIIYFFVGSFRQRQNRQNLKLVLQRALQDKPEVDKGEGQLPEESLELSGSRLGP

For the compound `O=C(O)COCCN1CCN(C(c2ccccc2)c2ccc(Cl)cc2)CC1` (stereo not shown) [cetirizine], the “Effect on scratching of mice injected with bilirubin” value in assay [1] (30 mg/kg i.p. 30 min prior to bilirubin at the nape) is on record as “failed to alleviate scratching behavior”.
For `C=CC1=C(C)/C(=C/C2=NC(=C\c3[nH]c(/C=C4\NC(=O)C(C)=C4C=C)c(C)c3CCC(=O)O)/C(CCC(=O)O)=C2C)NC1=O` [biliverdin], the “Scratching behavior” value in assay [1] (metabolite injected into mice (Fig 1D)) was “did not induce scratching”. In addition, the “Ca2+ response (concentration-response curve)” value (“Ca2+ response” for short) in assay [2] ([Ligand] 7.8125e-6 M), in assay [2] ([Ligand] 1.5625e-5 M), in assay [2] ([Ligand] 3.125e-5 M), in assay [2] ([Ligand] 6.25e-5 M), in assay [2] ([Ligand] 0.000125 M) and in assay [2] ([Ligand] 0.00025 M) was 0 each time. Besides, the “Ca2+ response” value in assay [2] ([Ligand] 0.0005 M), in assay [2] ([Ligand] 0.001 M), in assay [3] ([Ligand] 7.8125e-6 M), in assay [3] ([Ligand] 1.5625e-5 M), in assay [3] ([Ligand] 3.125e-5 M) and in assay [3] ([Ligand] 6.25e-5 M) was 0 in each case. Also, the “Ca2+ response” value in assay [3] ([Ligand] 0.000125 M), in assay [3] ([Ligand] 0.00025 M), in assay [3] ([Ligand] 0.0005 M) and in assay [3] ([Ligand] 0.001 M) was 0 each time.
With `CCN(CC)CCCC(C)Nc1ccnc2cc(Cl)ccc12` (stereo not shown) [Chloroquine, chloroquine], the “Scratching bouts binned according to 5 min intervals (time course of itch behavior)” value in assay [1] (time 5 min) was 0.201 and 0.03846 and 0.1149 and 0.1078 and 0.05405 and 0 (2×) and 0.1374 and 0.04255 and 0.2424 and 0.1529; in assay [1] (time 10 min), 0.2353 and 0.1065 and 0.2213 and 0.1121 and 0.1459 and 0.2993 and 0.3626 and 0.4113 and 0.6263 and 0.2639 and 0.4204; in assay [1] (time 15 min), 0.348 and 0.3787 and 0.1447 and 0.2155 and 0.3676 and 0.3673 and 0.4011 and 0.3191 and 0 and 0.5 and 0.2548; in assay [1] (time 20 min) it was 0.1618 and 0.2426 and 0.2681 and 0.2284 and 0.1838 and 0.1837 and 0.0989 and 0.09929 and 0.1212 and 0 (2×); in assay [1] (time 25 min), 0.05392 and 0.142 and 0.1447 and 0.1336 and 0.09189 and 0.1361 and 0 (3×) and 0.2361 and 0.172; in assay [1] (time 30 min), 0 (4×) and 0.09172 and 0.1064 and 0.2026 and 0.1568 and 0.01361 and 0.1277 and 0.0101.
Regarding `COc1ccc2c(c1)CC[C@@H]1[C@@H]2CC[C@]2(C)[C@@H](NCCCCCCN3C(=O)C=CC3=O)CC[C@@H]12` [U73122, reference compound], the results for the “Effect on bilirubin-induced calcium responses” value in assay [2] and in assay [3] were “abolished bilirubin-induced calcium responses” and “inhibited bilirubin-induced calcium responses”, respectively.
With `NCCc1c[nH]cn1` [Histamine, histamine], the “Scratching bouts binned according to 5 min intervals (time course of itch behavior)” value in assay [1] (time 5 min) was 0.02985 and 0.0102 and 0 (10×) and 0.134; in assay [1] (time 10 min), 0.3881 and 0.5714 and 0.08333 and 0.1818 and 0.3333 and 0.527 and 0.02857 and 0.1765 and 0.2143 and 0.1923 and 0.3918 and 0.5938 and 0.4348; in assay [1] (time 15 min), 0.2985 and 0.07143 and 0.8333 and 0.6545 and 0.625 and 0.3919 and 0.4286 and 0.2353 and 0.3367 and 0.3846 and 0.1031 and 0 and 0.5435; in assay [1] (time 20 min), 0.2687 and 0.1633 and 0 (2×) and 0.1636 and 0.04167 and 0.08108 and 0.2286 and 0.4118 and 0.08163 and 0.1154 and 0.2344 and 0.02174; in assay [1] (time 25 min), 0.01493 and 0.1837 and 0.08333 and 0 (4×) and 0.3143 and 0.1765 and 0.1939 and 0.3077 and 0.2474 and 0.1719; in assay [1] (time 30 min) it was 0 (11×) and 0.1735 and 0.1237.
Consider `C=C1C(=O)NC(C)C(=O)N(C)C(C)C(=O)NC(C(OC(=O)C(NC(C)=O)C(O)C(C)C)C(C)C)C(=O)N(C)C(C(C)OC)C(=O)OC(C)C(NC(C)=O)C(=O)OC(Cc2ccccc2)C(=O)N1C` (stereo not shown) [YM-254890, reference compound] (Ac-T[PhLac][NMeDha]A[NMeA][X1][NMeT](Me); ester 1-C; configuration not given here), for which the “Effect on bilirubin-induced calcium responses” value was “abolished bilirubin-induced calcium responses” in assay [2] and “inhibited bilirubin-induced calcium responses” in assay [3].
